Measurements as given in PubChem BioAssay AID330 (DTP/NCI, 2004).
“And” between values parts separate entries of the source, which are not always exact repeats. Equal entries are not always repeated. Inconclusive results and toxic doses are left out. How the source made its calls: active means survival T/C of 150% or more; inactive means T/C below 125% in these data.

System: P388 leukemia ip, CD2F1 mice, survival T/C
Assay: NCI In Vivo Anticancer Drug Screen. Data for tumor model P388 Leukemia (intraperitoneal) in CD2F1 (CDF1) mice
Conditions: endpoint: median survival time, higher = longer survival
Outline: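 Mice carrying the transplanted tumor received test compound or vehicle. Survival was recorded in each group, and the value is the treated-group measurement divided by that of the vehicle-treated control group.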

[1] = dose: 25.0 mg/kg/injection, schedule: Q01DX009 (ip), vehicle: Klucel (hydroxypropylcellulose) (HPC)
[2] = dose: 50.0 mg/kg/injection, schedule: Q01DX009 (ip), vehicle: Klucel (hydroxypropylcellulose) (HPC)
[3] = dose: 100.0 mg/kg/injection, schedule: Q01DX009 (ip), vehicle: Klucel (hydroxypropylcellulose) (HPC)
[4] = dose: 200.0 mg/kg/injection, schedule: Q01DX009 (ip), vehicle: Klucel (hydroxypropylcellulose) (HPC)
[5] = dose: 50.0 mg/kg/injection, schedule: Q01DX009 (ip), vehicle: saline
[6] = dose: 100.0 mg/kg/injection, schedule: Q01DX009 (ip), vehicle: saline
[7] = dose: 200.0 mg/kg/injection, schedule: Q01DX009 (ip), vehicle: saline
[8] = dose: 50.0 mg/kg/injection, schedule: Q01DX005 (ip), vehicle: saline with Tween-80
[9] = dose: 100.0 mg/kg/injection, schedule: Q01DX005 (ip), vehicle: saline with Tween-80
[10] = dose: 200.0 mg/kg/injection, schedule: Q01DX005 (ip), vehicle: saline with Tween-80
[11] = dose: 100.0 mg/kg/injection, schedule: Q01DX009 (ip), vehicle: saline with Tween-80
[12] = dose: 200.0 mg/kg/injection, schedule: Q01DX009 (ip), vehicle: saline with Tween-80

Measured: T/C

NC(=O)c1ncn(C2OC(CO)C(O)C2O)c1O (centres undefined)
inactive: dose: 12.5 mg/kg/injection, schedule: Q01DX009 (ip), vehicle: Klucel (hydroxypropylcellulose) (HPC) 107 % of control | [1] 113 % of control | [2] 115 % of control | [3] 113 % of control | [4] 96 % of control

OC(CN1CCOCC1)c1ccccn1 (centres undefined)
inactive: [5] 95 % of control | [6] 92 % of control | [7] 92 % of control

Cc1c(CN2CCOC(c3ccccc3)C2C)c(=O)n(-c2ccccc2)n1C (centres undefined)
inactive: [2] 93 % of control | [3] 103 % of control

CS(=O)(=O)Oc1cccn(S(C)(=O)=O)c1=O
inactive: dose: 12.5 mg/kg/injection, schedule: Q01DX009 (ip), vehicle: saline 97 % of control | dose: 25.0 mg/kg/injection, schedule: Q01DX009 (ip), vehicle: saline 92 % of control | [5] 97 % of control | [6] 97 % of control | [7] 97 % of control

COc1ccc(CCN/C=C2\Cc3c(Cl)cccc3C2=O)cc1OC
inactive: dose: 100.0 mg/kg/injection, schedule: Q04DX003 (ip), vehicle: Klucel (hydroxypropylcellulose) (HPC) 100 % of control | dose: 200.0 mg/kg/injection, schedule: Q04DX003 (ip), vehicle: Klucel (hydroxypropylcellulose) (HPC) 93 % of control | dose: 400.0 mg/kg/injection, schedule: Q04DX003 (ip), vehicle: Klucel (hydroxypropylcellulose) (HPC) 99 % of control

O=C1C(=C2C=CN(CCN3CCCC3)C=C2)C(=O)c2ccccc21
inactive: [2] 94 % of control | [3] 99 % of control | [4] 99 % of control

CC(=O)OCc1c(COC(C)=O)c(-c2ccc(Cl)cc2)n2c1CCC2
inactive: [2] 118 % of control

C/C(=C\CCCC(/C=C/C=C/CCCCOCc1ccccc1)O[Si](C)(C)C(C)(C)C)CO (centres undefined)
inactive: [8] 102 % of control | [9] 101 % of control | [10] 99 % of control

CCCCCC1OC1CC1OC1CCCCCCCC(=O)O (centres undefined)
inactive: [5] 99 % of control | [6] 90 % of control | [7] 86 % of control

COc1ccccc1C1=NC(C)(C)CO1
inactive: [8] 99 % of control | [9] 94 % of control | [10] 91 % of control

CC1(C)OC2OC3C(CNCCO)OC(c4ccccc4)OC3C2O1 (centres undefined)
inactive: dose: 50.0 mg/kg/injection, schedule: Q01DX005 (ip), vehicle: Klucel (hydroxypropylcellulose) (HPC) 107 % of control | dose: 100.0 mg/kg/injection, schedule: Q01DX005 (ip), vehicle: Klucel (hydroxypropylcellulose) (HPC) 108 % of control | dose: 200.0 mg/kg/injection, schedule: Q01DX005 (ip), vehicle: Klucel (hydroxypropylcellulose) (HPC) 101 % of control

CC(=O)C(Cl)c1ccccc1Cl (centres undefined)
inactive: [1] 111 % of control | [2] 107 % of control and 113 % of control | [3] 109 % of control

COc1cc2ccc(/C(C)=N/OC(C)=O)cc2cc1OC
inactive: [11] 95 % of control | [12] 90 % of control | dose: 400.0 mg/kg/injection, schedule: Q01DX009 (ip), vehicle: saline with Tween-80 90 % of control

c1ccc(C2=NN(c3ccccc3)C3(c4ccccc4)CCCN23)cc1 (centres undefined)
inactive: dose: 100.0 mg/kg/injection, schedule: Q01DX001 (ip), vehicle: saline with Tween-80 108 % of control | dose: 200.0 mg/kg/injection, schedule: Q01DX001 (ip), vehicle: saline with Tween-80 97 % of control | dose: 400.0 mg/kg/injection, schedule: Q01DX001 (ip), vehicle: saline with Tween-80 95 % of control

CCCCN1C(=O)C(=C/C=C/C=C2\Oc3ccccc3N2CCCS(=O)(=O)O)C(=O)N(CCCC)C1=S
inactive: dose: 60.0 mg/kg/injection, schedule: Q01DX005 (ip), vehicle: Klucel (hydroxypropylcellulose) (HPC) 106 % of control | dose: 120.0 mg/kg/injection, schedule: Q01DX005 (ip), vehicle: Klucel (hydroxypropylcellulose) (HPC) 106 % of control | dose: 240.0 mg/kg/injection, schedule: Q01DX005 (ip), vehicle: Klucel (hydroxypropylcellulose) (HPC) 106 % of control

CNCc1nc2sc3c(c2c(=O)[nH]1)CCCC3
inactive: dose: 50.0 mg/kg/injection, schedule: Q01DX009 (ip), vehicle: saline with Tween-80 97 % of control | [11] 105 % of control | [12] 102 % of control
